# Data reported in patent US20200216439A1, “HETERO-1,5,6,7-TETRAHYDRO-4H-INDOL-4-ONES” (BAYER PHARMA AKTIENGESELLSCHAFT, priority 2015, published 2020).
# Biological target: T1, catalytic domain of human Bub1 (amino acids 704-1085) (Homo sapiens, UniProt O43683)
# T1 construct: catalytic domain of human Bub1 (amino acids 704-1085); His6 (N); made in house; host or cells: Hi5 insect cells
# Assay: Bub1 kinase assay (TR-FRET)
# Format: biochemical
# Settings: TR-FRET; ATP 10 μM, peptide substrate 1 μM; 60 min at 22° C.; average or median if tested more than once; read-out: Inhibition of Bub1 kinase IC50
# How it was run: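 Human Bub1 catalytic domain (704-1085, His6-tagged, Hi5-expressed, ~200 ng/mL) preincubated with compound 15 min at 22 °C, then reacted 60 min at 22 °C with 10 μM ATP and 1 μM biotinylated peptide substrate, pH 7.5. EDTA stop; TR-FRET 665/620 ratio; IC50 from 4-parameter fit, 11 concentrations in duplicate.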
# T1 sequence (O43683 704-1085): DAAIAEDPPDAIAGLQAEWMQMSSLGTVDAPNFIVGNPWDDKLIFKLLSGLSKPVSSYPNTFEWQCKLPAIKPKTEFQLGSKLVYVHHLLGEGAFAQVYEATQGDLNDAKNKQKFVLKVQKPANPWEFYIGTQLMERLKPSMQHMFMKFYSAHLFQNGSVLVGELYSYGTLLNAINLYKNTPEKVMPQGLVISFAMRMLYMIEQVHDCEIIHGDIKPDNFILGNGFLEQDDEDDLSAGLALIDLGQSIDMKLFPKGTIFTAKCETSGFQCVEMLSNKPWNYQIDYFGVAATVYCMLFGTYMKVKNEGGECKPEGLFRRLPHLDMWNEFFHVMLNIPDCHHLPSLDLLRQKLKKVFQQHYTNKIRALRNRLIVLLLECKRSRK
row,Structure (SMILES),IC50
1,"CC(C)(C)SC(=O)N1CC(=O)c2c([nH]c(-c3ccncc3OCC(F)F)c2Nc2ccccc2)C1 [Example 304, S-tert-Butyl 3-anilino-2-[3-(2,2-difluoroethoxy)pyridin-4-yl]-4-oxo-1,4,5,7-tetrahydro-6H-pyrrolo[2,3c]pyridine-6-carbothioate]",233 nM
2,"CC(=O)Nc1cc(-c2[nH]c3c(c2Nc2ccccc2)C(=O)CN(C(=O)C2CCN(C)CC2)C3)ccn1 [Example 191, N-(4-{3-Anilino-6-[(1-methylpiperidin-4-yl)carbonyl]-4-oxo-4,5,6,7-tetrahydro-1H-pyrrolo[2,3-c]pyridin-2-yl}pyridin-2-yl)acetamide]",143 nM
3,"COC(=O)N1CC(=O)c2c([nH]c(-c3ccncc3)c2Nc2ccccc2)C1 [Example 18, Methyl 4-oxo-3-(phenylamino)-2-(pyridin-4-yl)-1,4,5,7-tetrahydro-6H-pyrrolo[2,3-c]pyridine-6-carboxylate]",6 nM
4,"COc1cnccc1-c1[nH]c2c(c1Nc1ccccc1)C(=O)CN(C(=O)C(C)(C)C)C2 [Example 106, 6-(2,2-Dimethylpropanoyl)-2(3-methoxypyridin-4-yl)-3-(phenylamino)-1,5,6,7-tetrahydro-4H-pyrrolo[2,3-c]pyridin-4-one]",6 nM
5,"CC(=O)Nc1cc(-c2[nH]c3c(c2Nc2ccccc2)C(=O)CN(C(=O)N2CCCCC2)C3)ccn1 [Example 166, N-{4-[3-Anilino-4-oxo-6-(piperidin-1-ylcarbonyl)-4,5,6,7-tetrahydro-1H-pyrrolo[2,3-c]pyridin-2-yl]pyridin-2-yl}acetamide]",3 nM
6,"CC(=O)Nc1cc(-c2[nH]c3c(c2Nc2ccccc2)C(=O)CN(C(=O)C2CC2)C3)ccn1 [Example 30, N-{4-[6-(Cyclopropylcarbonyl)-4-oxo-3-(phenylamino)-4,5,6,7-tetrahydro-1H-pyrrolo[2,3-c]pyridin-2-yl]pyridin-2-yl}acetamide]",7 nM
7,"COC(=O)N1CC(=O)c2c([nH]c(-c3ccnc(NC(=O)[C@@H]4C[C@H]4F)c3)c2Nc2ccccc2)C1 [Example 143, Methyl 3-anilino-2-[2-({[(1S,2R)-2-fluorocyclopropyl]carbonyl}amino)pyridin-4-yl]-4-oxo-1,4,5,7-tetrahydro-6H-pyrrolo[2,3-c]pyridine-6-carboxylate]",6 nM
8,"COc1cnccc1-c1[nH]c2c(c1Nc1ccccc1)C(=O)CN(S(C)(=O)=O)C2 [Example 107, 2-(3-Methoxypyridin-4-yl)-6(methylsulfonyl)-3-(phenylamino)-1,5,6,7-tetrahydro-4H-pyrrolo[2,3-c]pyridin-4-one]",6 nM
9,"CC(C)(C)OC(=O)N1CC(=O)c2c([nH]c(-c3ccnc(NC(=O)[C@H]4C[C@H]4F)c3)c2Nc2ccccc2)C1 [Example 128, tert-Butyl 3-anilino-2-[2-({[(1R,2R)-2-fluorocyclopropyl]carbonyl}amino)pyridin-4-yl]-4-oxo-1,4,5,7-tetrahydro-6H-pyrrolo[2,3-c]pyridine-6-carboxylate]",8 nM
10,"CC(=O)Nc1cc(-c2[nH]c3c(c2Nc2ccccc2)C(=O)CN(C(=O)CCC(F)(F)F)C3)ccn1 [Example 190, N-{4-[3-Anilino-4-oxo-6-(4,4,4-trifluorobutanoyl)-4,5,6,7-tetrahydro-1H-pyrrolo[2,3-c]pyridin-2-yl]pyridin-2-yl}acetamide]",135 nM
11,"COCCOCCNC(=O)N1CC(=O)c2c([nH]c(-c3ccncc3)c2Nc2ccccc2)C1 [Example 90, N-[2-(2-Methoxyethoxy)ethyl]-4-oxo-3-(phenylamino)-2-(pyridin-4-yl)-1,4,5,7-tetrahydro-6H-pyrrolo[2,3-c]pyridine-6-carboxamide]",21 nM
12,"O=C1CNCc2[nH]c(-c3ccnc(NC(=O)[C@H]4C[C@H]4F)c3)c(Nc3ccccc3)c21 [Example 138, (1R,2R)—N-[4-(3-Anilino-4-oxo-4,5,6,7-tetrahydro-1H-pyrrolo[2,3-c]pyridin-2-yl)pyridin-2-yl]-2-fluorocyclopropanecarboxamide]",224 nM
13,"CC(C)(C)OC(=O)N1CC(=O)c2c([nH]c(-c3ccnc(NC(=O)c4cncs4)c3)c2Nc2ccccc2)C1 [Example 122, tert-Butyl 4-oxo-3-(phenylamino)-2-{2-[(1,3-thiazol-5-ylcarbonyl)amino]pyridin-4-yl}-1,4,5,7-tetrahydro-6H-pyrrolo[2,3-c]pyridine-6-carboxylate]",6 nM
14,"CC(C)(C)OC(=O)N1CC(=O)c2c([nH]c(-c3ccnc(NC(=O)C(C)(C)F)c3)c2Nc2ccccc2)C1 [Example 119, tert-Butyl 2-{2-[(2-fluoro-2-methylpropanoyl)amino]pyridin-4-yl}-4-oxo-3-(phenylamino)-1,4,5,7-tetrahydro-6H-pyrrolo[2,3-c]pyridine-6-carboxylate]",42 nM
15,"CNC(=O)N1CC(=O)c2c([nH]c(-c3ccnc(NC(C)=O)c3)c2Nc2ccc(C)cc2)C1 [Example 320, 2-[2-(Acetylamino)pyridin-4-yl]-N-methyl-3-[(4-methylphenyl)amino]-4-oxo-1,4,5,7-tetrahydro-6H-pyrrolo[2,3-c]pyridine-6-carboxamide]",178 nM
16,"COc1ccc(C(=O)Nc2cc(-c3[nH]c4c(c3Nc3ccccc3)C(=O)CN(C(=O)OC(C)(C)C)C4)ccn2)cc1 [Example 270, tert-Butyl 2-2-[(4-methoxybenzoyl)amino]pyridin-4-yl-4-oxo-3-(phenylamino)-1,4,5,7-tetrahydro-6H-pyrrolo[2,3-c]pyridine-6-carboxylate]",37 nM
17,"COc1ccc(C(=O)Nc2cc(-c3c(Nc4ccccc4)c4c(n3C)CN(S(=O)(=O)N(C)C)CC4=O)ccn2)cc1F [Example 290, N-4-[6-(Dimethylsulfamoyl)-1-methyl-4-oxo-3-(phenylamino)-4,5,6,7-tetrahydro-1H-pyrrolo[2,3-c]pyridin-2-yl]pyridin-2-yl-3-fluoro-4-methoxybenzamide]",73 nM
18,"O=C1CNCc2[nH]c(-c3ccncc3Cl)c(Nc3ccccc3)c21 [Example 2, 2-(3-Chloropyridin-4-yl)-3-(phenylamino)-1,5,6,7-tetrahydro-4H-pyrrolo[2,3-c]pyridin-4-one]",236 nM
19,"CS(=O)(=O)N1CC(=O)c2c([nH]c(-c3ccncc3)c2Nc2ccccc2)C1 [Example 19, 6-(Methylsulfonyl)-3-(phenylamino)-2-(pyridin-4-yl)-1,5,6,7-tetrahydro-4H-pyrrolo[2,3-c]pyridin-4-one]",8 nM
20,"CC(=O)Nc1cc(-c2[nH]c3c(c2Nc2ccc(F)cc2)C(=O)CN(S(C)(=O)=O)C3)ccn1 [Example 311, N-(4-(3-[(4-Fluorophenyl)amino]-6-(methylsulfonyl)-4-oxo-4,5,6,7-tetrahydro-1H-pyrrolo[2,3-c]pyridin-2-yl)pyridin-2-yl)acetamide]",4 nM
21,"COc1cnccc1-c1[nH]c2c(c1Nc1ccccc1)C(=O)CNC2 [Example 103, 2-(3-Methoxypyridin-4-yl)-3-(phenylamino)-1,5,6,7-tetrahydro-4H-pyrrolo[2,3-c]pyridin-4-one]",138 nM
22,"COc1ccc(C(=O)Nc2cc(-c3[nH]c4c(c3Nc3ccccc3)C(=O)CN(S(=O)(=O)N(C)C)C4)ccn2)cc1F [Example 289, N-4-[6-(Dimethylsulfamoyl)-4-oxo-3-(phenylamino)-4,5,6,7-tetrahydr-1H-pyrrolo[2,3-c]pyridin-2-yl]pyridin-2-yl-3-fluoro-4-methoxybenzamide]",6 nM
